Measured values reported in US9757432B2, “Materials and methods useful for treating glioblastorna” (Ohio State Innovation Foundation, priority 2012, dated 2017).
Residues, ends and D or L forms follow the SMILES beside them. *: point of attachment. Cbz = O=C(OCc1ccccc1)*; CH2F = FC*

System: glioma cells
Test: Rescue of SapC-DOPS-induced killing by pathway inhibitors
Type: cell-based
Details: inhibitor given with SapC-DOPS
From the text: Synergy analysis was completed using CompuSyn software.

| SMILES | rescue of SapC-DOPS-induced killing |
| --- | --- |
| CO/C1=C\C(C)=C\[C@@H](C)[C@@H](O)[C@@H](C)C/C(C)=C/C=C/[C@H](OC)[C@@H]([C@@H](C)[C@@H](O)[C@H](C)[C@@]2(O)C[C@@H](O)[C@H](C)[C@@H](C(C)C)O2)OC1=O [bafilomycin Al] | significant rescue |
| COC(=O)C[C@H](NC(=O)[C@H](C)NC(=O)[C@@H](NC(=O)OCc1ccccc1)C(C)C)C(=O)CF [Z-VAD-FMK] (Cbz-Val-Ala-Asp(OMe)-CH2F) | did not rescue |
| Cn1cnc(N)c2ncnc1-2 [3-methyladeneine] | significant rescue |
